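Cells were grown in 96-well plates and exposed to each compound for 48 hours at five concentrations; endpoints were interpolated linearly between bracketing concentrations, or set to the highest concentration if not reached. Here, GI50 denotes the concentration required for 50% inhibition of growth.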 The source made the active and inactive calls. Rule as the data show it: active = GI50 up to about 1.1 µM and inactive = higher.
Legend:
Test in all cases: inhibition of tumour cell growth, NCI panel, 48 h
ACHN = test system: ACHN
MDA-MB-435 = test system: MDA-MB-435
HCC 2998 = test system: HCC 2998
SNB-75 = test system: SNB-75
RXF 393 = test system: RXF 393
LOX IMVI = test system: LOX IMVI
BT-549 = test system: BT-549
MCF7 = test system: MCF7
OVCAR-5 = test system: OVCAR-5
SN12C = test system: SN12C
UO-31 = test system: UO-31
IGROV-1 = test system: IGROV-1
NCI-H23 = test system: NCI-H23
CAKI-1 = test system: CAKI-1
Malme-3M = test system: Malme-3M
SK-MEL-28 = test system: SK-MEL-28
HCT-116 = test system: HCT-116
OVCAR-8 = test system: OVCAR-8
SK-MEL-2 = test system: SK-MEL-2
CCRF-CEM = test system: CCRF-CEM

Measured: GI50

CC(=O)OCC1OC(n2c(-c3ccc(C)cc3)cc(-c3ccccc3)c(C#N)c2=S)C(OC(C)=O)C(OC(C)=O)C1OC(C)=O (stereo not drawn)
inactive: ACHN > 100 µM | MDA-MB-435 > 100 µM | HCC 2998 > 100 µM | SNB-75 32.7 µM | RXF 393 > 100 µM | LOX IMVI > 100 µM | BT-549 > 100 µM | MCF7 > 100 µM | OVCAR-5 > 100 µM | SN12C > 100 µM | UO-31 > 100 µM | IGROV-1 > 100 µM | NCI-H23 > 100 µM | CAKI-1 > 100 µM | Malme-3M > 100 µM | SK-MEL-28 > 100 µM | HCT-116 > 100 µM | OVCAR-8 > 100 µM

O=[N+]([O-])/C(C(Cl)=C(Cl)Cl)=C(/Sc1ccccc1)N1CCOCC1
inactive: ACHN 4.82 µM | MDA-MB-435 2.59 µM | HCC 2998 15.3 µM | RXF 393 1.92 µM | LOX IMVI 1.53 µM | BT-549 4.76 µM | MCF7 2.57 µM | OVCAR-5 16.4 µM | SN12C 4.76 µM | UO-31 4.67 µM | SK-MEL-2 5.14 µM | IGROV-1 3.13 µM | NCI-H23 11.3 µM | CAKI-1 6.27 µM | Malme-3M 5.13 µM | CCRF-CEM 1.83 µM | SK-MEL-28 4.74 µM | HCT-116 1.67 µM | OVCAR-8 1.89 µM

Cc1c(/N=N/c2ccccc2)c(-c2ccccc2)n(C2OC(CO)C(O)C(O)C2O)c(=S)c1C#N (stereo not drawn)
inactive: ACHN 3.95 µM | MDA-MB-435 4.98 µM | HCC 2998 5.3 µM | SNB-75 2.72 µM | RXF 393 2.5 µM | LOX IMVI 2.62 µM | BT-549 5.4 µM | MCF7 4.74 µM | OVCAR-5 13.8 µM | SN12C 6.22 µM | UO-31 7.74 µM | SK-MEL-2 4.48 µM | IGROV-1 5.75 µM | NCI-H23 3.36 µM | Malme-3M 6.67 µM | CCRF-CEM 2.32 µM | SK-MEL-28 4.03 µM | OVCAR-8 3.99 µM

COc1cc(S(=O)(=O)Nc2ccc(-c3csc(N4C(=O)CSC4c4ccccc4O)n3)cc2)ccc1Cl (stereo not drawn)
inactive: ACHN 32.4 µM | MDA-MB-435 40.4 µM | HCC 2998 21.6 µM | SNB-75 31.9 µM | LOX IMVI 34.4 µM | BT-549 31 µM | MCF7 30.9 µM | OVCAR-5 79.6 µM | SN12C 92 µM | UO-31 51.3 µM | SK-MEL-2 44.6 µM | IGROV-1 46.3 µM | NCI-H23 31.5 µM | CAKI-1 > 100 µM | Malme-3M 42.5 µM | CCRF-CEM 23.3 µM | SK-MEL-28 24.5 µM | HCT-116 32.8 µM | OVCAR-8 55.1 µM

CCOC(=O)c1nc2cc(C(F)(F)F)ccc2nc1Nc1cc(OC)c(OC)c(OC)c1
inactive: ACHN > 100 µM | MDA-MB-435 > 100 µM | HCC 2998 > 100 µM | SNB-75 > 100 µM | RXF 393 > 100 µM | LOX IMVI > 100 µM | BT-549 > 100 µM | MCF7 > 100 µM | OVCAR-5 > 100 µM | SN12C > 100 µM | UO-31 > 100 µM | IGROV-1 > 100 µM | NCI-H23 > 100 µM | CAKI-1 > 100 µM | Malme-3M > 100 µM | CCRF-CEM > 100 µM | SK-MEL-28 > 100 µM | HCT-116 > 100 µM | OVCAR-8 > 100 µM

CC(C)c1ccc(NC(=S)NC(=O)c2ccccc2)cc1
inactive: ACHN 18.2 µM | MDA-MB-435 13.8 µM | HCC 2998 16 µM | RXF 393 18.6 µM | LOX IMVI 15.3 µM | BT-549 24.9 µM | MCF7 18.4 µM | OVCAR-5 28.3 µM | SN12C 34.6 µM | UO-31 3.94 µM | SK-MEL-2 20 µM | IGROV-1 25.4 µM | NCI-H23 23 µM | CAKI-1 20.5 µM | Malme-3M 24.5 µM | CCRF-CEM 11.4 µM | SK-MEL-28 20.8 µM | HCT-116 22.2 µM | OVCAR-8 32.3 µM

COC1=C(OC)C(=O)C(Cc2c(C)nc3sccn23)=C(C)C1=O
inactive: ACHN 14.9 µM | MDA-MB-435 13.6 µM | HCC 2998 20.9 µM | RXF 393 22.8 µM | LOX IMVI 11.7 µM | BT-549 16.1 µM | MCF7 20.1 µM | OVCAR-5 16.8 µM | SN12C 15.8 µM | UO-31 13.6 µM | SK-MEL-2 16.6 µM | IGROV-1 22.4 µM | NCI-H23 10.9 µM | CAKI-1 17.9 µM | Malme-3M 10.9 µM | CCRF-CEM 3.56 µM | SK-MEL-28 11 µM | HCT-116 19.3 µM | OVCAR-8 14.9 µM

COCN1C(=O)[C@@H]2CCCN2C(=O)c2ccc(Cl)cc21
inactive: ACHN > 100 µM | MDA-MB-435 > 100 µM | HCC 2998 > 100 µM | SNB-75 > 100 µM | RXF 393 > 100 µM | LOX IMVI > 100 µM | BT-549 > 100 µM | MCF7 > 100 µM | OVCAR-5 > 100 µM | SN12C > 100 µM | UO-31 > 100 µM | SK-MEL-2 > 100 µM | IGROV-1 > 100 µM | NCI-H23 > 100 µM | CAKI-1 > 100 µM | Malme-3M > 100 µM | SK-MEL-28 > 100 µM | HCT-116 > 100 µM | OVCAR-8 > 100 µM

COc1cc(OC)cc(OCc2ccc3nc(-c4ccccc4)c(Cl)nc3c2)c1
inactive: ACHN 17.7 µM | MDA-MB-435 84.5 µM | HCC 2998 32.7 µM | SNB-75 15.8 µM | LOX IMVI 43.1 µM | BT-549 31.3 µM | MCF7 58.6 µM | OVCAR-5 49 µM | SN12C 40.7 µM | UO-31 66.2 µM | SK-MEL-2 35.6 µM | IGROV-1 21.1 µM | NCI-H23 17.3 µM | CAKI-1 11.5 µM | Malme-3M 11 µM | CCRF-CEM > 100 µM | SK-MEL-28 > 100 µM | HCT-116 29 µM | OVCAR-8 25.8 µM

COc1ccccc1/[N+]([O-])=C/c1ccccc1OC(=S)S
inactive: ACHN 49.3 µM | MDA-MB-435 16.7 µM | HCC 2998 14.7 µM | SNB-75 25.8 µM | RXF 393 33.7 µM | LOX IMVI 28.1 µM | BT-549 25.9 µM | MCF7 23.7 µM | OVCAR-5 96.2 µM | SN12C 88.1 µM | UO-31 31 µM | SK-MEL-2 21.5 µM | IGROV-1 19.6 µM | NCI-H23 28.2 µM | CAKI-1 58.9 µM | Malme-3M 96.4 µM | SK-MEL-28 > 100 µM | HCT-116 42 µM | OVCAR-8 21.7 µM

— ChEMBL document CHEMBL1201862, “PubChem BioAssay data set” (2004)
